{"source": "patent US10604523B2", "about": "“1-aryl-4-methyl-[1,2,4]triazolo[4,3-a]quinoxaline derivatives” (Janssen Pharmaceutica NV, priority 2011, dated 2020)", "key": {"[1]": {"system": "Apomorphine-induced agitation", "assay": "Reversal of Apomorphine-induced Agitation in Rats (APO)", "format": "in vivo, rat", "details": "for SC Dose at max effect / SC Max effect (cumulative agitation score over 60 min) / SC LAD (lowest active dose): subcutaneous route; for SC Max effect (cumulative agitation score over 60 min) / PO Max effect (cumulative agitation score over 60 min): apomorphine 1.0 mg/kg i.v.; for SC LAD (lowest active dose) / PO LAD (lowest active dose): lowest dose at which ≥67% tested animals respond", "procedure": "Apomorphine (1.0 mg/kg, i.v.)-induced agitation was scored every 5 min over the first hour after injection of apomorphine. The score system was: (3) pronounced, (2) moderate, (1) slight, and (0) absent. […] For the present purpose, the cumulative agitation score over the whole 60-min observation period was used as a measure to describe the maximum effect (Max effect)."}, "[2]": {"target": "T1, Rat recombinant PDE10A (rPDE10A2) (Rattus norvegicus, UniProt Q9QYJ6)", "T1 construct": "made in house; host or cells: Sf9 insect cells (baculovirus)", "T1 sequence (Q9QYJ6 1-794)": "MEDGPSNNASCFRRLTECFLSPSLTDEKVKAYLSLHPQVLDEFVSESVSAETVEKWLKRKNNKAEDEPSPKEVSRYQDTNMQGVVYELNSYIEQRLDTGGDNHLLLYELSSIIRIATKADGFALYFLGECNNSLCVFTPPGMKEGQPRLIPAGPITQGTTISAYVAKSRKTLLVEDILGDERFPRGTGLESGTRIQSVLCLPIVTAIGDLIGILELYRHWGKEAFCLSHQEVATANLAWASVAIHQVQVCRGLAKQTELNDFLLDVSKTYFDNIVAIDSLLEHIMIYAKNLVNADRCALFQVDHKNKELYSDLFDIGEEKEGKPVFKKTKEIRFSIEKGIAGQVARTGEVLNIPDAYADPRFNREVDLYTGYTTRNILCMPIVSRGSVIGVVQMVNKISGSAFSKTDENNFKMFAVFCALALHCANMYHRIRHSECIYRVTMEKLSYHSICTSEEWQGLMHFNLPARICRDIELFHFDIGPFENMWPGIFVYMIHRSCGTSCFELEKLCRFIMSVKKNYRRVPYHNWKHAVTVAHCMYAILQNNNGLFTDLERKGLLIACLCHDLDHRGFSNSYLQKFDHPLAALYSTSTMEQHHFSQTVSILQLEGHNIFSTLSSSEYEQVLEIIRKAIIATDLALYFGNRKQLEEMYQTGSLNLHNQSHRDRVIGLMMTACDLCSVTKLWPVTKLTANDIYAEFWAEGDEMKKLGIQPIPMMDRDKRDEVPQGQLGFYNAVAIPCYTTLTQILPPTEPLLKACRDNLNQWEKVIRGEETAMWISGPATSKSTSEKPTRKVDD", "assay": "In vitro assay PDE10A (SPA, 3H-cAMP)", "format": "biochemical", "details": "for IC50: read-out: PIC50 PDE10 (converted)"}, "[3]": {"target": "T2, Human recombinant PDE2A (hPDE2A) (Homo sapiens, UniProt O00408)", "T2 construct": "made in house; host or cells: Sf9 insect cells (baculovirus)", "T2 sequence (O00408 whole entry)": "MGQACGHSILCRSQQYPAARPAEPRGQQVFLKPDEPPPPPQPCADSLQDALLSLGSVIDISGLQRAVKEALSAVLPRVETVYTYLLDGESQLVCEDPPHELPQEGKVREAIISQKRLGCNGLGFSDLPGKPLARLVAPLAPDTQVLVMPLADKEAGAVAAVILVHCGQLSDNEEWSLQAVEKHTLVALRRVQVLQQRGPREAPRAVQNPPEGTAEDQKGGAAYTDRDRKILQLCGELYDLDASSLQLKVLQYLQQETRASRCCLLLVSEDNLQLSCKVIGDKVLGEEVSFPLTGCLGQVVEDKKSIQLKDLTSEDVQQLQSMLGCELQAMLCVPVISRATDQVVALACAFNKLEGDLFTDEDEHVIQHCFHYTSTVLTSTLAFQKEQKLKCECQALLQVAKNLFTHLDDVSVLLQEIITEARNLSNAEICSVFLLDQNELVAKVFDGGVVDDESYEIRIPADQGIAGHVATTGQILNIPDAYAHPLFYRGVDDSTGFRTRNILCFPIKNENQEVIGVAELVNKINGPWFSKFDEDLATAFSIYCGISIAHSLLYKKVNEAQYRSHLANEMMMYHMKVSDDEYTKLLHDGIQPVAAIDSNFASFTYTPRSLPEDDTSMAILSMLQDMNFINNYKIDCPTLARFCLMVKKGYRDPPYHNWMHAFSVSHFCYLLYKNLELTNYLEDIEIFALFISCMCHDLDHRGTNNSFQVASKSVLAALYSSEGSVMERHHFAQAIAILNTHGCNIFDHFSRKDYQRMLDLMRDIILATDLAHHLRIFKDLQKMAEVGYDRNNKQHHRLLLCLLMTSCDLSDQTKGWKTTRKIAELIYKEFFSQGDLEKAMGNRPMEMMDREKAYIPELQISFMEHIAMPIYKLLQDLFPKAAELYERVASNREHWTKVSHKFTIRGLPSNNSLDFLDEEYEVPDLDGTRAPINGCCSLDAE", "assay": "In vitro assay PDE2A (SPA, 3H-cGMP)", "format": "biochemical", "details": "for IC50: read-out: pIC50 PDE2 (converted)", "procedure": "Tested compounds were dissolved and diluted in 100% DMSO to a concentration 100 fold of the final concentration in the assay. Compound dilutions (0.4 μl) were added in 384 well plates to 20 μl of incubation buffer (50 mM Tris pH 7.8, 8.3 mM MgCl2, 1.7 mM EGTA). 10 μl of hPDE2A enzyme in incubation buffer was added and the reaction was started by addition of 10 μl substrate to a final concentration of 10 μM cGMP and 0.01 μCi ^3H-cGMP. The reaction was incubated for 45 minutes at room temperature. […] After sedimentation of the beads during 30 minutes the radioactivity was measured in a Perkin Elmer Topcount scintillation counter and results were expressed as cpm. For blanc values the enzyme was omitted from the reaction and replaced by incubation buffer. Control values were obtained by addition of a final concentration of 1% DMSO instead of compound."}}, "note": "pIC50: −log10 of the molar value. Read-outs that look alike come from different tables or passages of the source."}
{"smiles": "Cc1nc2ccc(CN3CCOC(CCO)C3)cc2n2c(-c3ccccc3Cl)nnc12", "note": "(stereo not drawn) [Compound B-63]", "values": [{"measurement": "SC Dose at max effect", "setting": "[1]", "result": 10, "unit": "mg/kg"}, {"measurement": "SC Max effect (cumulative agitation score over 60 min)", "setting": "[1]", "result": 19}, {"measurement": "SC LAD (lowest active dose)", "setting": "[1]", "result": 10, "unit": "mg/kg"}, {"measurement": "IC50", "setting": "[2]", "result": 9.33, "unit": "nM"}, {"measurement": "IC50", "setting": "[3]", "result": 5.62, "unit": "nM"}]}
{"smiles": "Cc1nc2ccc(C(=O)NCc3cccc(F)n3)cc2n2c(-c3ccccc3Cl)nnc12", "note": "[Compound B-32]", "values": [{"measurement": "PO Dose at Max Effect", "setting": "[1]", "result": 10, "unit": "mg/kg"}, {"measurement": "PO Max effect (cumulative agitation score over 60 min)", "setting": "[1]", "result": 22}, {"measurement": "PO LAD (lowest active dose)", "setting": "[1]", "result": "> 10", "unit": "mg/kg"}, {"measurement": "IC50", "setting": "[2]", "result": 6.61, "unit": "nM"}, {"measurement": "IC50", "setting": "[3]", "result": 0.251, "unit": "nM"}]}
{"smiles": "Cc1nc2ccc(CN[C@H]3CC[C@H](O)CC3)cc2n2c(-c3ccccc3Cl)nnc12", "note": "[Compound B-90]", "values": [{"measurement": "SC Dose at max effect", "setting": "[1]", "result": 10, "unit": "mg/kg"}, {"measurement": "SC Max effect (cumulative agitation score over 60 min)", "setting": "[1]", "result": 25}, {"measurement": "SC LAD (lowest active dose)", "setting": "[1]", "result": "> 10", "unit": "mg/kg"}, {"measurement": "IC50", "setting": "[2]", "result": 50.1, "unit": "nM"}, {"measurement": "IC50", "setting": "[3]", "result": 12, "unit": "nM"}]}
{"smiles": "Cc1ncccc1-c1nnc2c(C)nc3ccc(OC(F)(F)F)cc3n12", "note": "[Compound B-168]", "values": [{"measurement": "PO Dose at Max Effect", "setting": "[1]", "result": 10, "unit": "mg/kg"}, {"measurement": "PO Max effect (cumulative agitation score over 60 min)", "setting": "[1]", "result": 16}, {"measurement": "PO LAD (lowest active dose)", "setting": "[1]", "result": 10, "unit": "mg/kg"}, {"measurement": "IC50", "setting": "[2]", "result": 174, "unit": "nM"}, {"measurement": "IC50", "setting": "[3]", "result": 97.7, "unit": "nM"}]}
{"smiles": "Cc1nc2ccc(CN3CCOC(CCF)C3)cc2n2c(-c3ccccc3Cl)nnc12", "note": "(stereo not drawn) [Compound B-89]", "values": [{"measurement": "SC Dose at max effect", "setting": "[1]", "result": 5, "unit": "mg/kg"}, {"measurement": "SC Max effect (cumulative agitation score over 60 min)", "setting": "[1]", "result": 24}, {"measurement": "SC LAD (lowest active dose)", "setting": "[1]", "result": "> 5", "unit": "mg/kg"}, {"measurement": "IC50", "setting": "[2]", "result": 50.1, "unit": "nM"}, {"measurement": "IC50", "setting": "[3]", "result": 11.7, "unit": "nM"}]}
{"smiles": "Cc1nc2ccc(C(=O)NC3CCN(C)CC3)cc2n2c(-c3ccccc3Cl)nnc12", "note": "[Compound B-47]", "values": [{"measurement": "SC Dose at max effect", "setting": "[1]", "result": 10, "unit": "mg/kg"}, {"measurement": "SC Max effect (cumulative agitation score over 60 min)", "setting": "[1]", "result": 22}, {"measurement": "SC LAD (lowest active dose)", "setting": "[1]", "result": "> 10", "unit": "mg/kg"}, {"measurement": "IC50", "setting": "[2]", "result": 145, "unit": "nM"}, {"measurement": "IC50", "setting": "[3]", "result": 2.04, "unit": "nM"}]}
{"smiles": "Cc1nc2ccc(N3CCN(C)CC3)cc2n2c(-c3ccccc3Cl)nnc12", "note": "[Compound B-16, 1-(2-Chlorophenyl)-4-methyl-8-(4-methylpiperazin-1-yl)[1,2,4]triazolo[4,3-a]quinoxaline]", "values": [{"measurement": "SC Dose at max effect", "setting": "[1]", "result": 2.5, "unit": "mg/kg"}, {"measurement": "SC Max effect (cumulative agitation score over 60 min)", "setting": "[1]", "result": 21}, {"measurement": "SC LAD (lowest active dose)", "setting": "[1]", "result": "> 2.5", "unit": "mg/kg"}, {"measurement": "IC50", "setting": "[2]", "result": 26.9, "unit": "nM"}, {"measurement": "IC50", "setting": "[3]", "result": 5.25, "unit": "nM"}]}
{"smiles": "Cc1nc2ccc(C(=O)NCc3ccccn3)cc2n2c(-c3cc(Cl)ccc3Cl)nnc12", "note": "[Compound B-11, 1-(2,5-Dichlorophenyl)-4-methyl-N-(pyridin-2-ylmethyl)[1,2,4]triazolo[4,3-a]quinoxaline-8-carboxamide]", "values": [{"measurement": "PO Dose at Max Effect", "setting": "[1]", "result": 10, "unit": "mg/kg"}, {"measurement": "PO Max effect (cumulative agitation score over 60 min)", "setting": "[1]", "result": 19}, {"measurement": "PO LAD (lowest active dose)", "setting": "[1]", "result": "> 10", "unit": "mg/kg"}, {"measurement": "IC50", "setting": "[2]", "result": 33.9, "unit": "nM"}, {"measurement": "IC50", "setting": "[3]", "result": 1.62, "unit": "nM"}]}
{"smiles": "COCC1CN(Cc2ccc3nc(C)c4nnc(-c5ccccc5Cl)n4c3c2)CCO1", "note": "(stereo not drawn) [Compound B-75]", "values": [{"measurement": "SC Dose at max effect", "setting": "[1]", "result": 10, "unit": "mg/kg"}, {"measurement": "SC Max effect (cumulative agitation score over 60 min)", "setting": "[1]", "result": 15}, {"measurement": "SC LAD (lowest active dose)", "setting": "[1]", "result": 2.5, "unit": "mg/kg"}, {"measurement": "IC50", "setting": "[2]", "result": 63.1, "unit": "nM"}, {"measurement": "IC50", "setting": "[3]", "result": 6.92, "unit": "nM"}]}
{"smiles": "COc1cc(CNC(=O)c2ccc3nc(C)c4nnc(-c5ccccc5Cl)n4c3c2)cc(OC)c1OC", "note": "[Compound B-66]", "values": [{"measurement": "PO Dose at Max Effect", "setting": "[1]", "result": 10, "unit": "mg/kg"}, {"measurement": "PO Max effect (cumulative agitation score over 60 min)", "setting": "[1]", "result": 21}, {"measurement": "PO LAD (lowest active dose)", "setting": "[1]", "result": "> 10", "unit": "mg/kg"}, {"measurement": "IC50", "setting": "[2]", "result": 37.2, "unit": "nM"}, {"measurement": "IC50", "setting": "[3]", "result": 5.89, "unit": "nM"}]}
{"smiles": "Cc1nc2ccc(C(=O)NCCF)cc2n2c(-c3ccccc3Cl)nnc12", "note": "[Compound B-40]", "values": [{"measurement": "PO Dose at Max Effect", "setting": "[1]", "result": 10, "unit": "mg/kg"}, {"measurement": "PO Max effect (cumulative agitation score over 60 min)", "setting": "[1]", "result": 22}, {"measurement": "PO LAD (lowest active dose)", "setting": "[1]", "result": "> 10", "unit": "mg/kg"}, {"measurement": "IC50", "setting": "[2]", "result": 18.6, "unit": "nM"}, {"measurement": "IC50", "setting": "[3]", "result": 1.02, "unit": "nM"}]}
{"smiles": "Cc1nc2ccc(CN3CCOC(CO)C3)cc2n2c(-c3ccccc3Cl)nnc12", "note": "(stereo not drawn) [Compound B-55]", "values": [{"measurement": "SC Dose at max effect", "setting": "[1]", "result": 10, "unit": "mg/kg"}, {"measurement": "SC Max effect (cumulative agitation score over 60 min)", "setting": "[1]", "result": 22}, {"measurement": "SC LAD (lowest active dose)", "setting": "[1]", "result": "> 10", "unit": "mg/kg"}, {"measurement": "pIC50", "setting": "[2]", "result": 7.97}, {"measurement": "pIC50", "setting": "[3]", "result": 8.46}]}
{"smiles": "Cc1nc2ccc(OCCN3CCOCC3)cc2n2c(-c3ccccc3Cl)nnc12", "note": "[Compound B-113]", "values": [{"measurement": "SC Dose at max effect", "setting": "[1]", "result": 10, "unit": "mg/kg"}, {"measurement": "SC Max effect (cumulative agitation score over 60 min)", "setting": "[1]", "result": 8}, {"measurement": "SC LAD (lowest active dose)", "setting": "[1]", "result": 10, "unit": "mg/kg"}, {"measurement": "IC50", "setting": "[2]", "result": 33.1, "unit": "nM"}, {"measurement": "IC50", "setting": "[3]", "result": 22.9, "unit": "nM"}]}
{"smiles": "COc1ccc(Cl)c(-c2nnc3c(C)nc4ccc(C(=O)NCc5ccccn5)cc4n23)c1", "note": "[Compound B-43]", "values": [{"measurement": "PO Dose at Max Effect", "setting": "[1]", "result": 10, "unit": "mg/kg"}, {"measurement": "PO Max effect (cumulative agitation score over 60 min)", "setting": "[1]", "result": 19}, {"measurement": "PO LAD (lowest active dose)", "setting": "[1]", "result": 10, "unit": "mg/kg"}, {"measurement": "IC50", "setting": "[2]", "result": 43.7, "unit": "nM"}, {"measurement": "IC50", "setting": "[3]", "result": 1.62, "unit": "nM"}]}
{"smiles": "Cc1nc2ccc(CNC3CCOCC3)cc2n2c(-c3ccccc3Cl)nnc12", "note": "[Compound B-76]", "values": [{"measurement": "SC Dose at max effect", "setting": "[1]", "result": 10, "unit": "mg/kg"}, {"measurement": "SC Max effect (cumulative agitation score over 60 min)", "setting": "[1]", "result": 16}, {"measurement": "SC LAD (lowest active dose)", "setting": "[1]", "result": 10, "unit": "mg/kg"}, {"measurement": "IC50", "setting": "[2]", "result": 45.7, "unit": "nM"}, {"measurement": "IC50", "setting": "[3]", "result": 7.08, "unit": "nM"}]}
